Tests used:
[1] = cited from earlier work
[2] = Storage stability of the crystal form at 40° C. and 75% RH for six months, XRPD comparison (FIG. 5); format: physicochemical; conditions: stored at 40° C. and 75% RH for six months
Experimental: FIG. 5 is an X-ray powder diffraction (XRPD) comparison diagram of crystal form A of inositol nicotinate provided by the present invention stored for half a year at 40° C. and under the condition of 75% of relative humidity.
XRPD analysis: It was detected at room temperature using a Bruker D8 advance type diffractometer from German Brook Instrument Co., Ltd by Cu-Kα rays (λ=1.5418 Å), with a 2θ angle scanning from 3° to 40°, and the scanning speed was 0.2°/second.
The crystal form A of inositol nicotinate obtained in the above examples was stored under conditions of 40° C. and 75% RH for six months.

Row | SMILES | solubility in chloroform ([1]; chloroform) | solubility in ethanol ([1]; ethanol and other organic solvents) | solubility in dimethyl sulfoxide ([1]; hot dimethylformamide or dimethyl sulfoxide) | solubility in hot dimethylformamide ([1]; hot dimethylformamide) | solubility in water ([1]; water) | crystal form after storage (physical stability, XRPD comparison) [2]
1 | O=C(O[C@H]1[C@H](OC(=O)c2cccnc2)[C@@H](OC(=O)c2cccnc2)[C@H](OC(=O)c2cccnc2)[C@@H](OC(=O)c2cccnc2)[C@H]1OC(=O)c1cccnc1)c1cccnc1 [Inositol nicotinate, cis-1,2,3,5-trans-4,6-cyclohexanehexol niacinate] | very slightly soluble | insoluble | only soluble | only soluble | insoluble | –
2 | O=C(O[C@H]1[C@H](OC(=O)c2cccnc2)[C@@H](OC(=O)c2cccnc2)[C@H](OC(=O)c2cccnc2)[C@@H](OC(=O)c2cccnc2)[C@H]1OC(=O)c1cccnc1)c1cccnc1 [crystal form A of inositol nicotinate, cis-1,2,3,5-trans-4,6-cyclohexanehexol niacinate] | – | – | – | – | – | has not changed
